Data on one molecule can be found in patent US20250090614A1, “COMPOSITIONS AND METHODS FOR IMPROVING LUNG FUNCTION” (priority 2023, published 2025).

Common to all, as to assay type: in vivo, mouse
What all share (details): aged C57BL/6 mice, 25 mg/kg p.o. each substance, 90 days

The test system of one assay is Laminin. Description: Laminin ELISA in lung tissue supernatant of aged mice. Here is the method:
The experiments were performed in old C57b1/6 mice (28-30 weeks). Table 1 discloses the groups of mice used for the experimentation. C57BL/6 mice were bred and naturally aged in a pathogen-free colony. Mice were group-housed six per cage for the treatment regimen and maintained on a 12-hr light-dark schedule with ad libitum access to food and water. All experiments were designed according to the principles of animal use for gerontological research (Miller, R. A., & Nadon, N. L. (2000). Principles of animal use for gerontological research. Journals of Gerontology. Series A, Biological Sciences and Medical Sciences, 55, B117-B123) [table] The above test substances were administered to the mice for a period of 90 days. Rapamycin was used as a positive control. After 90 days of administration experiments were performed to assess the respiratory muscle function, anatomical changes, cellular senescence and immunological changes. Hyperinflation of the lungs may occur with ageing along with destruction of lung parenchyma or loss of supporting structures within the lung parenchyma (Gillooly M, Lamb D. Airspace size in lungs of lifelong non-smokers: effect of age and sex. Thorax. 1993; 48:39-43). […] Laminin was measured using commercially available ELISA Kit (AbCam ELISA Kit) according to the user's manual provided. […]
(In general: In an ELISA, binding on a coated surface is turned into a signal by an enzyme label.)

For the next assay, the system named is old C57b1/6 mice. Description: Minute ventilation by whole-body plethysmography in aged mice. Here is the method:
The experiments were performed in old C57b1/6 mice (28-30 weeks). Table 1 discloses the groups of mice used for the experimentation. C57BL/6 mice were bred and naturally aged in a pathogen-free colony. Mice were group-housed six per cage for the treatment regimen and maintained on a 12-hr light-dark schedule with ad libitum access to food and water. All experiments were designed according to the principles of animal use for gerontological research (Miller, R. A., & Nadon, N. L. (2000). Principles of animal use for gerontological research. Journals of Gerontology. Series A, Biological Sciences and Medical Sciences, 55, B117-B123) [table] The above test substances were administered to the mice for a period of 90 days. […] The respiratory muscle function in the study animals was assessed by estimating the Tidal Volume, Minute ventilation, Transdiaphragmatic pressure ([…]) and Respiratory rate. […] In the present study, ventilatory parameters were measured in awake mice during eupnoea (spontaneous breathing of room air) using a whole-body plethysmography system. […] Recordings were taken after 10 min of acclimatization and recorded for one hour. Recorded parameters included tidal volume and minute ventilation Minute ventilation-Minute ventilation is the amount of air inhaled or exhaled from a person's lungs in one minute is an important measurement that's related to tidal volume. […]

A further assay deals with mTOR. Nature of the assay: mTOR ELISA in lung tissue homogenate of aged mice. Here is the method: The experiments were performed in old C57b1/6 mice (28-30 weeks). Table 1 discloses the groups of mice used for the experimentation. C57BL/6 mice were bred and naturally aged in a pathogen-free colony. Mice were group-housed six per cage for the treatment regimen and maintained on a 12-hr light-dark schedule with ad libitum access to food and water. All experiments were designed according to the principles of animal use for gerontological research (Miller, R. A., & Nadon, N. L. (2000). Principles of animal use for gerontological research. Journals of Gerontology. Series A, Biological Sciences and Medical Sciences, 55, B117-B123) [table] The above test substances were administered to the mice for a period of 90 days. Rapamycin was used as a positive control. After 90 days of administration experiments were performed to assess the respiratory muscle function, anatomical changes, cellular senescence and immunological changes. Activation of AMPK delays senescence. Abnormal autophagy and aging promote each other, and AMPK is an important regulator of this process. AMPK is involved in the transduction of several aging-related signaling pathways. AMPK intervenes in the development of many age-related diseases. […] These events contribute to the pathogenesis of age-related disorders.

Turning to `O=C(/C=C/c1ccc(O)c(O)c1)O[C@H](Cc1ccc(O)c(O)c1)C(=O)O` [Rosmarinic acid], in the assay with Laminin, the expression of laminin entry was “increased”. Besides, the minute ventilation result in the assay on old C57b1/6 mice (versus old mice control) is listed as “increase”. Moreover, the “minute ventilation, comparison between treatment groups” value with old C57b1/6 mice (Rapamycin 8 mg/kg p.o. positive control) was “better improvement than control, and Rapamycin”. Further, the “expression of mTOR” value in the assay on mTOR is “decreased”.
